Experimental data published in US10721934B2, “Enhanced preservative” (Arch Chemicals, Inc., priority 2013, dated 2020).

Key:
Type in all cases: cell-based
[1] = test system: Pseudomonas aeruginosa ATCC 15442; test: Minimum Inhibitory Concentration (MIC) test, 96 well microtiter plate; conditions: single chemical
Method: Microorganisms: Pseudomonas aeruginosa ATCC 15442
(§1) MIC set up: A 96 well microtiter plate Minimum Inhibitory Concentration (MIC) test was run in broth suitable for the test organism. Serially diluted actives were prepared in sterilized water, and the start-up concentration varied depending on the efficacy range. Inocula prepared in 2× suitable broth was added into each well, and the final concentrations of bacteria were adjusted to approximately 5×10^5.

Aspergillus brasiliensis = test: MIC test, 96 well microtiter plate; conditions: single chemical
Method: as §1
(§2) Further MIC tests were conducted using different amine compounds in combination with a pyrithione and two different isothiazolinones. The procedures described in Example No. 1 were used.

Aureobasidium pullulans = test: MIC test, 96 well microtiter plate; conditions: single chemical
Method: as §1, §2

Candida albicans = test: MIC test, 96 well microtiter plate; conditions: single chemical
Method: as §1, §2

Escherichia coli = test: MIC test, 96 well microtiter plate; conditions: single chemical
Method: as §1, §2

Staphylococcus aureus = test: MIC test, 96 well microtiter plate; conditions: single chemical
Method: as §1, §2

[2] = test system: mixed bacterial inoculum (Pseudomonas aeruginosa, Enterobacter cloacae, Escherichia coli, Acinetobacter calcoaceticus); test: Repeated inoculation of standard acrylic paint, streak plate rating
Method: In the following experiments, a pyrithione, an isothiazolinone, and a biocide enhancing agent in accordance with the present disclosure were combined with a standard acrylic paint. The concentrations of the pyrithione, the isothiazolinone and the biocide enhancing agent were varied. The pyrithione, the isothiazolinone and the biocide enhancing agent were added alone and in various mixtures to the standard acrylic paint.
The acrylic paint was then inoculated three times using a mixed bacterial inoculum. The bacterial inoculum, which comprised a bacterial suspension in water, contained the following four bacteria in equal proportions.
The samples were streak plated at 24, 48, and 72 hours after inoculation. The streak plates were rated as follows;

In the case of `O=c1[nH]sc2ccccc12` [BIT, 1,2 Benzisothiazolin-3-one], the “Minimum Inhibitory Concentration” value [1] was 32.5 ppm, the “Minimum Inhibitory Concentration” value (Aspergillus brasiliensis) was 32.5 ppm and the “Minimum Inhibitory Concentration” value (Aureobasidium pullulans) was 4.1 ppm. The “Minimum Inhibitory Concentration” value (Candida albicans) was 8.1 ppm, the “Minimum Inhibitory Concentration” value (Escherichia coli) was 6.1 ppm and the “Minimum Inhibitory Concentration” value (Staphylococcus aureus) was 8.1 ppm. The streak plate rating ([2]; Set Five, BIT 50 ppm, 1st inoculation 24 h) was 5 (>45 viable microorganisms Severely contaminated), the streak plate rating ([2]; Set Five, BIT 50 ppm, 1st inoculation 48 h) was 5 (>45 viable microorganisms Severely contaminated) and the streak plate rating ([2]; Set Five, BIT 50 ppm, 1st inoculation 72 h) was 5 (>45 viable microorganisms Severely contaminated). For the same molecule, the streak plate rating ([2]; Set Five, BIT 50 ppm, 2nd inoculation 24 h) was 5 (>45 viable microorganisms Severely contaminated), the streak plate rating ([2]; Set Five, BIT 50 ppm, 2nd inoculation 48 h) was 5 (>45 viable microorganisms Severely contaminated) and the streak plate rating ([2]; Set Five, BIT 50 ppm, 2nd inoculation 72 h) was 5 (>45 viable microorganisms Severely contaminated). For the same molecule, the streak plate rating ([2]; Set Five, BIT 50 ppm, 3rd inoculation 24 h) was 5 (>45 viable microorganisms Severely contaminated), the streak plate rating ([2]; Set Five, BIT 50 ppm, 3rd inoculation 48 h) was 5 (>45 viable microorganisms Severely contaminated) and the streak plate rating ([2]; Set Five, BIT 50 ppm, 3rd inoculation 72 h) was 5 (>45 viable microorganisms Severely contaminated). For the same molecule, the streak plate rating ([2]; Set Four, BIT 50 ppm, 1st inoculation 24 h) was 5 (>45 viable microorganisms Severely contaminated), the streak plate rating ([2]; Set Four, BIT 50 ppm, 1st inoculation 48 h) was 5 (>45 viable microorganisms Severely contaminated) and the streak plate rating ([2]; Set Four, BIT 50 ppm, 1st inoculation 72 h) was 5 (>45 viable microorganisms Severely contaminated). For the same molecule, the streak plate rating ([2]; Set Four, BIT 50 ppm, 2nd inoculation 24 h) was 5 (>45 viable microorganisms Severely contaminated), the streak plate rating ([2]; Set Four, BIT 50 ppm, 2nd inoculation 48 h) was 5 (>45 viable microorganisms Severely contaminated) and the streak plate rating ([2]; Set Four, BIT 50 ppm, 2nd inoculation 72 h) was 5 (>45 viable microorganisms Severely contaminated). The streak plate rating ([2]; Set Four, BIT 50 ppm, 3rd inoculation 24 h) was 5 (>45 viable microorganisms Severely contaminated), the streak plate rating ([2]; Set Four, BIT 50 ppm, 3rd inoculation 48 h) was 5 (>45 viable microorganisms Severely contaminated) and the streak plate rating ([2]; Set Four, BIT 50 ppm, 3rd inoculation 72 h) was 5 (>45 viable microorganisms Severely contaminated). For the same molecule, the streak plate rating ([2]; Set One, BIT 60 ppm, 1st inoculation 24 h) was 5 (>45 viable microorganisms Severely contaminated), the streak plate rating ([2]; Set One, BIT 60 ppm, 1st inoculation 48 h) was 5 (>45 viable microorganisms Severely contaminated) and the streak plate rating ([2]; Set One, BIT 60 ppm, 1st inoculation 72 h) was 5 (>45 viable microorganisms Severely contaminated). For the same molecule, the streak plate rating ([2]; Set One, BIT 60 ppm, 2nd inoculation 24 h) was 5 (>45 viable microorganisms Severely contaminated), the streak plate rating ([2]; Set One, BIT 60 ppm, 2nd inoculation 48 h) was 5 (>45 viable microorganisms Severely contaminated) and the streak plate rating ([2]; Set One, BIT 60 ppm, 3rd inoculation 24 h) was 5 (>45 viable microorganisms Severely contaminated). The streak plate rating ([2]; Set One, BIT 60 ppm, 3rd inoculation 48 h) was 5 (>45 viable microorganisms Severely contaminated), the streak plate rating ([2]; Set One, BIT 60 ppm, 3rd inoculation 72 h) was 5 (>45 viable microorganisms Severely contaminated) and the streak plate rating ([2]; Set One, BIT 120 ppm, 1st inoculation 24 h) was 1 (1-5 viable microorganisms Very lightly contaminated). The streak plate rating ([2]; Set One, BIT 120 ppm, 1st inoculation 48 h) was 3 (16-30 viable microorganisms Moderately contaminated), the streak plate rating ([2]; Set One, BIT 120 ppm, 1st inoculation 72 h) was 3 (16-30 viable microorganisms Moderately contaminated) and the streak plate rating ([2]; Set One, BIT 120 ppm, 2nd inoculation 24 h) was 5 (>45 viable microorganisms Severely contaminated). The streak plate rating ([2]; Set One, BIT 120 ppm, 2nd inoculation 48 h) was 5 (>45 viable microorganisms Severely contaminated), the streak plate rating ([2]; Set One, BIT 120 ppm, 3rd inoculation 24 h) was 5 (>45 viable microorganisms Severely contaminated) and the streak plate rating ([2]; Set One, BIT 120 ppm, 3rd inoculation 48 h) was 5 (>45 viable microorganisms Severely contaminated). For the same molecule, the streak plate rating ([2]; Set One, BIT 120 ppm, 3rd inoculation 72 h) was 5 (>45 viable microorganisms Severely contaminated), the streak plate rating ([2]; Set Three, BIT 50 ppm, 1st inoculation 24 h) was 5 (>45 viable microorganisms Severely contaminated) and the streak plate rating ([2]; Set Three, BIT 50 ppm, 1st inoculation 48 h) was 5 (>45 viable microorganisms Severely contaminated). For the same molecule, the streak plate rating ([2]; Set Three, BIT 50 ppm, 1st inoculation 72 h) was 5 (>45 viable microorganisms Severely contaminated), the streak plate rating ([2]; Set Three, BIT 50 ppm, 2nd inoculation 24 h) was 5 (>45 viable microorganisms Severely contaminated) and the streak plate rating ([2]; Set Three, BIT 50 ppm, 2nd inoculation 48 h) was 5 (>45 viable microorganisms Severely contaminated). For the same molecule, the streak plate rating ([2]; Set Three, BIT 50 ppm, 2nd inoculation 72 h) was 5 (>45 viable microorganisms Severely contaminated), the streak plate rating ([2]; Set Three, BIT 50 ppm, 3rd inoculation 24 h) was 5 (>45 viable microorganisms Severely contaminated) and the streak plate rating ([2]; Set Three, BIT 50 ppm, 3rd inoculation 48 h) was 5 (>45 viable microorganisms Severely contaminated). For the same molecule, the streak plate rating ([2]; Set Three, BIT 50 ppm, 3rd inoculation 72 h) was 5 (>45 viable microorganisms Severely contaminated), the streak plate rating ([2]; Set Two, BIT 25 ppm, 1st inoculation 24 h) was 5 (>45 viable microorganisms Severely contaminated) and the streak plate rating ([2]; Set Two, BIT 25 ppm, 1st inoculation 48 h) was 5 (>45 viable microorganisms Severely contaminated). The streak plate rating ([2]; Set Two, BIT 25 ppm, 1st inoculation 72 h) was 5 (>45 viable microorganisms Severely contaminated), the streak plate rating ([2]; Set Two, BIT 25 ppm, 2nd inoculation 24 h) was 5 (>45 viable microorganisms Severely contaminated) and the streak plate rating ([2]; Set Two, BIT 25 ppm, 2nd inoculation 48 h) was 5 (>45 viable microorganisms Severely contaminated). The streak plate rating ([2]; Set Two, BIT 25 ppm, 2nd inoculation 72 h) was 5 (>45 viable microorganisms Severely contaminated), the streak plate rating ([2]; Set Two, BIT 25 ppm, 3rd inoculation 24 h) was 5 (>45 viable microorganisms Severely contaminated) and the streak plate rating ([2]; Set Two, BIT 25 ppm, 3rd inoculation 48 h) was 5 (>45 viable microorganisms Severely contaminated). The streak plate rating ([2]; Set Two, BIT 25 ppm, 3rd inoculation 72 h) was 5 (>45 viable microorganisms Severely contaminated), the streak plate rating ([2]; Set Two, BIT 50 ppm, 1st inoculation 24 h) was 5 (>45 viable microorganisms Severely contaminated) and the streak plate rating ([2]; Set Two, BIT 50 ppm, 1st inoculation 48 h) was 5 (>45 viable microorganisms Severely contaminated). The streak plate rating ([2]; Set Two, BIT 50 ppm, 1st inoculation 72 h) was 5 (>45 viable microorganisms Severely contaminated), the streak plate rating ([2]; Set Two, BIT 50 ppm, 2nd inoculation 24 h) was 5 (>45 viable microorganisms Severely contaminated) and the streak plate rating ([2]; Set Two, BIT 50 ppm, 2nd inoculation 48 h) was 5 (>45 viable microorganisms Severely contaminated). The streak plate rating ([2]; Set Two, BIT 50 ppm, 2nd inoculation 72 h) was 5 (>45 viable microorganisms Severely contaminated), the streak plate rating ([2]; Set Two, BIT 50 ppm, 3rd inoculation 24 h) was 5 (>45 viable microorganisms Severely contaminated) and the streak plate rating ([2]; Set Two, BIT 50 ppm, 3rd inoculation 48 h) was 5 (>45 viable microorganisms Severely contaminated). The streak plate rating ([2]; Set Two, BIT 50 ppm, 3rd inoculation 72 h) was 5 (>45 viable microorganisms Severely contaminated).
